Assay results from paper PMC5107307 (ACS chemical biology, 2016).
“And” between values parts separate entries of the source, which are not always exact repeats. Equal entries are not always repeated. Non-standard residues stand in square brackets, D forms with d. Residues, ends and D or L forms follow the SMILES beside them.

Experiments:
VIP-receptor 1 (VIPR1) = molecular target: T1, VIP-receptor 1 (VIPR1) (Homo sapiens, UniProt P32241); experiment: Inhibition of VIP-induced cAMP production in SGS-72 cells
T1 sequence (P32241 31-457): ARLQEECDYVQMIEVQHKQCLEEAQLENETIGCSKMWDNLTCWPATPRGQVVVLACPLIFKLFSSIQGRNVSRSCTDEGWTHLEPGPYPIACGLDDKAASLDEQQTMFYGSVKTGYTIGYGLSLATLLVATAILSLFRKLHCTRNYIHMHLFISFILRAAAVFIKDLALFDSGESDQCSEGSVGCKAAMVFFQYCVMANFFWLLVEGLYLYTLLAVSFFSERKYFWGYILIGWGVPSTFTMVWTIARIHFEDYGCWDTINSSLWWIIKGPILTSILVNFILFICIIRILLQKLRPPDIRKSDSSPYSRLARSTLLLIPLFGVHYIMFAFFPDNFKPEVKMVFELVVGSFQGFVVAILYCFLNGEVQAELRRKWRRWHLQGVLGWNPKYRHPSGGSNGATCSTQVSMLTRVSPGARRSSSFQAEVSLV

PTHR1 [1] = molecular target: T2, PTHR1 (Homo sapiens, UniProt Q03431); experiment: PTHR1 competition binding assay with 125I-PTH
T2 sequence (Q03431 27-593): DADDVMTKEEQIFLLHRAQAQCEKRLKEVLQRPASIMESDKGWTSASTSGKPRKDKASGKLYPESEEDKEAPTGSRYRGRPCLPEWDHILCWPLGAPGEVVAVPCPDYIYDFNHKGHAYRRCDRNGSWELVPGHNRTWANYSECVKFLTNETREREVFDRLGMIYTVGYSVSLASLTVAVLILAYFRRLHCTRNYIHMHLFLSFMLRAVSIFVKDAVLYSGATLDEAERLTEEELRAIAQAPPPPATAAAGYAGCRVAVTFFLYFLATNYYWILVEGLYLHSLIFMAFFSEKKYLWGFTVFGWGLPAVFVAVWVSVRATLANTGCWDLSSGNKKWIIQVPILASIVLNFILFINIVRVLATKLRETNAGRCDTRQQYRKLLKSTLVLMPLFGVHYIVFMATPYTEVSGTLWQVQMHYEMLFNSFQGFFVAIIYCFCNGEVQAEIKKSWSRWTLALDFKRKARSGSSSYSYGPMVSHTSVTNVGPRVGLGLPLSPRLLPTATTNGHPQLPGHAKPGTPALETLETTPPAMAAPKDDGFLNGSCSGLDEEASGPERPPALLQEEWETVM

PTHR1 [2] = molecular target: T2, PTHR1; experiment: Antagonism of agonist-stimulated cAMP generation in SGS-72 cells; assay type: cell-based
SGS-72 cells = experiment: Effect on basal cAMP levels in SGS-72 cells; settings: Fig. S1a
β2-adrenergic receptor = β2-adrenergic receptor (Homo sapiens, UniProt P07550); experiment: Effect on isoproterenol-stimulated cAMP production in SGS-72 cells; settings: Fig. S1b
bovine trypsin = molecular target: T3, bovine trypsin (Bos taurus, UniProt P00760); experiment: in vitro; assay type: in vitro ADME
T3 sequence (P00760 24-246): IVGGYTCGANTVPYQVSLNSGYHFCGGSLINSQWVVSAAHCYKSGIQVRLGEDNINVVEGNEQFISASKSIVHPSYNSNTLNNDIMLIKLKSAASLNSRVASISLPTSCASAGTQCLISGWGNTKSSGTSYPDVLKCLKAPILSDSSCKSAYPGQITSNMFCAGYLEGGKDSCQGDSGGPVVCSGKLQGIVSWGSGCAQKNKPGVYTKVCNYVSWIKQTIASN

proteinase K = proteinase K (Parengyodontium album, UniProt P06873); experiment: in vitro; settings: fungal, proteinase K (isolated protease)
female CD1 mice = experiment: Antagonism of PTH; assay type: in vivo, mouse; settings: antagonist 500 nmol/kg s.c. one hour after PTH(1–34) 10 nmol/kg
[3] = system: constitutively active PTHR1 variants; settings: cited from earlier work
[4] = prior pharmacokinetic/pharmacodynamic data; cited from earlier work
[5] = radiolabeled peptide; cited from earlier work

β2-adrenergic receptor, sequence (P07550 whole entry): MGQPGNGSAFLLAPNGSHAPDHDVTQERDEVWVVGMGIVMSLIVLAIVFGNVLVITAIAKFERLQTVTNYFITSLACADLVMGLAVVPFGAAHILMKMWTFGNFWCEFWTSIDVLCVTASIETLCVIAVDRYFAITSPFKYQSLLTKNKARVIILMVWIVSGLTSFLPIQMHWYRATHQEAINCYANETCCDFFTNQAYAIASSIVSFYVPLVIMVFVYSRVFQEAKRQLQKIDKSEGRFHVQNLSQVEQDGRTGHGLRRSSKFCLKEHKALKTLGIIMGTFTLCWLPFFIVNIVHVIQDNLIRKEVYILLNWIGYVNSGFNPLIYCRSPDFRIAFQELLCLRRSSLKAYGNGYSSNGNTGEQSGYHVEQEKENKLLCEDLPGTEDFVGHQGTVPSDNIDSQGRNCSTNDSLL
proteinase K, sequence (P06873 106-384): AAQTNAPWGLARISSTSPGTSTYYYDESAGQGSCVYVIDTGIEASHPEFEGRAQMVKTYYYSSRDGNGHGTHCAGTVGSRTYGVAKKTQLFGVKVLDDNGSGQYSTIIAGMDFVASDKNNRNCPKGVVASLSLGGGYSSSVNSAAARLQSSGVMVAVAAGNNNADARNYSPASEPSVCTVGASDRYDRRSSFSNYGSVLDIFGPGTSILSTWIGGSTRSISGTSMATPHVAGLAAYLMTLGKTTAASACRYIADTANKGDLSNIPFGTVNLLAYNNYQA

SMILES	IC50 (VIP-receptor 1 (VIPR1))	IC50 (PTHR1 [1])	IC50 (PTHR1 [2])	Reduction in M-PTH(1–11) inhibition potency of 2 in comparison to 1 (PTHR1 [2]; SGS-72 cells, cAMP response to M-PTH(1–11))	Effect on low basal cAMP levels in SGS-72 cells (SGS-72 cells)	Effect on stimulation of cAMP production caused by isoproterenol (β2-adrenergic receptor)	Protease stability, half life, Trypsin (bovine trypsin)	half-life (proteinase K)	Effect on PTH(1–34)-induced blood Ca2+ response, antagonist given after agonist (female CD1 mice)	Effect on PTH(1–34)-induced blood Pi response, antagonist given after agonist (female CD1 mice)	Inverse agonism of cAMP signaling at constitutively active PTHR1 variants [3]	half-life (bovine trypsin; bovine, isolated enzyme trypsin)	Half-life of clearance from the circulation [4]	Stability in plasma [5]
CSCC[C@@H](CC(=O)N[C@@H](CCC(=O)O)C(=O)N[C@@H](CCCNC(=N)N)C(=O)N[C@H](C(=O)N[C@@H](CCC(=O)O)CC(=O)N[C@@H](Cc1c[nH]c2ccccc12)C(=O)N[C@@H](CC(C)C)C(=O)N[C@@H](CCCNC(=N)N)C(=O)N[C@@H](CCCCN)CC(=O)N[C@@H](CCCCN)C(=O)N[C@@H](CC(C)C)C(=O)N[C@@H](CCC(N)=O)C(=O)N[C@@H](CC(=O)O)CC(=O)N[C@H](C(=O)N[C@@H](Cc1c[nH]cn1)C(=O)N[C@@H](CC(N)=O)C(=O)N[C@H](CC(N)=O)Cc1ccccc1)C(C)C)C(C)C)NC(=O)[C@H](CO)NC(=O)[C@H](CO)NC(=O)[C@H](CC(C)C)NC(=O)C[C@H](Cc1c[nH]c2ccccc12)NC(=O)[C@H](CCCCN)NC(=O)[C@@H](Cc1c[nH]c2ccccc12)NC(=O)[C@H](CC(C)C)NC(=O)[C@H](CC(N)=O)NC(=O)[C@H](Cc1c[nH]cn1)NC(=O)[C@H](CCSC)NC(=O)[C@@H](N)Cc1ccccc1 [Peptide 2]	> 1000 nM	4.5 ± 1.2 nM	6.15 nM and 10.6 nM and 2.07 nM	< 5 fold	neither α-peptide 1 nor α/β-peptide 2 substantially reduces	neither α-peptide 1 nor α/β-peptide 2 substantially reduces	> 20 min	2.5 min	only small effects	only small effects	–	–	–	–
CSCC[C@H](NC(=O)[C@H](CO)NC(=O)[C@H](CO)NC(=O)[C@H](CC(C)C)NC(=O)[C@H](Cc1c[nH]cn1)NC(=O)[C@H](CCCCN)NC(=O)[C@@H](Cc1c[nH]c2ccccc12)NC(=O)[C@H](CC(C)C)NC(=O)[C@H](CC(N)=O)NC(=O)[C@H](Cc1c[nH]cn1)NC(=O)[C@H](CCSC)NC(=O)[C@@H](N)Cc1ccccc1)C(=O)N[C@@H](CCC(=O)O)C(=O)N[C@@H](CCCNC(=N)N)C(=O)N[C@H](C(=O)N[C@@H](CCC(=O)O)C(=O)N[C@@H](Cc1c[nH]c2ccccc12)C(=O)N[C@@H](CC(C)C)C(=O)N[C@@H](CCCNC(=N)N)C(=O)N[C@@H](CCCCN)C(=O)N[C@@H](CCCCN)C(=O)N[C@@H](CC(C)C)C(=O)N[C@@H](CCC(N)=O)C(=O)N[C@@H](CC(=O)O)C(=O)N[C@H](C(=O)N[C@@H](Cc1c[nH]cn1)C(=O)N[C@@H](CC(N)=O)C(=O)N[C@@H](Cc1ccccc1)C(N)=O)C(C)C)C(C)C [Peptide 1, bPTH(7–34) DTrp^12] (H-FMHNL[dW]KHLSSMERVEWLRKKLQDVHNF-NH2; N-terminus assumed)	> 1000 nM	4.7 ± 1.2 nM	–	–	neither α-peptide 1 nor α/β-peptide 2 substantially reduces	neither α-peptide 1 nor α/β-peptide 2 substantially reduces	0.7 min	0.13 min	only small effects	only small effects	acts as an inverse agonist	0.7 min	–	–
CC[C@H](C)[C@H](NC(=O)[C@H](CCC(=O)O)NC(=O)[C@H](CO)NC(=O)[C@@H](NC(=O)[C@@H](N)CO)C(C)C)C(=O)N[C@@H](CCC(N)=O)C(=O)N[C@@H](CC(C)C)C(=O)N[C@@H](CCSC)C(=O)N[C@@H](Cc1cnc[nH]1)C(=O)N[C@@H](CC(N)=O)C(=O)N[C@@H](CC(C)C)C(=O)NCC(=O)N[C@@H](CCCCN)C(=O)N[C@@H](Cc1cnc[nH]1)C(=O)N[C@@H](CC(C)C)C(=O)N[C@@H](CC(N)=O)C(=O)N[C@@H](CO)C(=O)N[C@@H](CCSC)C(=O)N[C@@H](CCC(=O)O)C(=O)N[C@@H](CCCN=C(N)N)C(=O)N[C@H](C(=O)N[C@@H](CCC(=O)O)C(=O)N[C@@H](Cc1c[nH]c2ccccc12)C(=O)N[C@@H](CC(C)C)C(=O)N[C@@H](CCCN=C(N)N)C(=O)N[C@@H](CCCCN)C(=O)N[C@@H](CCCCN)C(=O)N[C@@H](CC(C)C)C(=O)N[C@@H](CCC(N)=O)C(=O)N[C@@H](CC(=O)O)C(=O)N[C@H](C(=O)N[C@@H](Cc1cnc[nH]1)C(=O)N[C@@H](CC(N)=O)C(=O)N[C@@H](Cc1ccccc1)C(=O)O)C(C)C)C(C)C [PTH(1–34)]	–	–	–	–	–	–	–	–	–	–	–	–	5 to 10 min	highly stable in plasma
